Assay in all cases: Test F preemergence
The test system of one test is common waterhemp. It is filed as in vivo, Amaranthus rudis. From the text:
(§1) Seeds of plant species selected from corn (Zea mays), soybean (Glycine max), velvetleaf (Abutilon theophrasti), lambsquarters (Chenopodium album), wild poinsettia (Euphorbia heterophylla), pigweed, palmer (palmer pigweed, Amaranthus palmeri), common waterhemp (Amaranthus rudis), surinam grass (Brachiaria decumbens), large crabgrass (Digitaria sanguinalis), crabgrass, Brazil (Brazilian crabgrass, Digitaria horizontalis), fall panicum (Panicum dichotomiflorum), giant foxtail (Setaria faberii), green foxtail (Setaria viridis), goosegrass (Eleusine indica), johnsongrass (Sorghum halepense), common ragweed (Ambrosia elation), barnyardgrass (Echinochloa crus-galli), southern sandbur (Cenchrus echinatus), arrowleaf sida (Sida rhombifolia), Italian ryegrass (Lolium multiflorum), dayflower, VA (Virginia (VA) dayflower, Commelina virginica), field bindweed (Convolvulus arvensis), cocklebur (common cocklebur, Xanthium strumarium), morningglory (Ipomoea coccinea), nightshade (eastern black nightshade, Solanum ptycanthum), kochia (Kochia scoparia), yellow nutsedge (Cyperus esculentus), and hairy beggarticks (Bidens pilosa), were planted into a silt loam soil and treated preemergence with test chemicals formulated in a non-phytotoxic solvent mixture which included a surfactant.
(§2) At the same time, plants from these crop and weed species and also horseweed (Canada horseweed, Conyza canadensis), smartweed (ladysthumb smartweed, Polygonum persicaria), waterhemp_RES1, (ALS & Triazine resistant common waterhemp, Amaranthus rudis), and waterhemp_RES2, (ALS & HPPD resistant common waterhemp, Amaranthus rudis) were treated with postemergence applications of test chemicals formulated in the same manner. Plants ranged in height from 2 to 18 cm for postemergence treatments (1- to 4-leaf stage). Treated plants and controls were maintained in a greenhouse for 14 to 21 days, after which time all species were compared to controls and visually evaluated. Plant response ratings, summarized in Table F, are based on a scale of 0 to 100 where 0 is no effect and 100 is complete control. A dash (-) response means no test result.

Another test has as its system pigweed, palmer. It is filed as in vivo, Amaranthus palmeri.
Excerpt: as §1, §2

A further test has as its system wild poinsettia. It is filed as in vivo, Euphorbia heterophylla.
Excerpt: as §1, §2

In another test the test system is green foxtail. It is filed as in vivo, Setaria viridis.
Excerpt: as §1, §2

Another test concerns fall panicum. Type of test: in vivo, Panicum dichotomiflorum.
Excerpt: as §1, §2

[1] abbreviates: Preemergence, 31 g ai/ha, scale 0 to 100.
Setting [2] is: Preemergence, 62 g ai/ha, scale 0 to 100.
Setting [3] is: Preemergence, 125 g ai/ha, scale 0 to 100.
[4] abbreviates: preemergence, 8 g ai/ha, scale 0 to 100, 100 is complete control.
Where [5] appears, read: preemergence, 16 g ai/ha, scale 0 to 100, 100 is complete control.
Setting [6] is: Preemergence, 16 g ai/ha, scale 0 to 100.

For the compound `CCOc1cc(C(=O)NCC(F)(F)F)nn1Cc1ccnc(C(F)(F)F)c1` [Compound 104], the “Plant response rating, Common Waterhemp” value with common waterhemp (setting [1]) came out at 100; in the test with common waterhemp (setting [2]) it was 100; in the test with common waterhemp (setting [3]), 100; in the test with common waterhemp (setting [4]) it was 65; with common waterhemp (setting [5]) it was 98. Further, the “Plant response rating, Pigweed, Palmer” value is 50 in the test with pigweed, palmer (setting [1]); 50 with pigweed, palmer (setting [2]); 100 in the test with pigweed, palmer (setting [3]); 0 in the test on pigweed, palmer (setting [4]); 0 in the test on pigweed, palmer (setting [5]). Besides, the “Plant response rating, Wild Poinsettia” value is listed as 15 in the test with wild poinsettia (setting [1]); 80 in the test on wild poinsettia (setting [2]); 98 with wild poinsettia (setting [3]); 0 in the test with wild poinsettia (setting [4]); 10 in the test with wild poinsettia (setting [5]). Further, the “Plant response rating, Green Foxtail” value in the test with green foxtail (setting [1]) was 100; with green foxtail (setting [2]), 100; in the test on green foxtail (setting [3]), 100; with green foxtail (setting [4]), 5; in the test with green foxtail (setting [5]), 60. Besides, the “Plant response rating, Fall Panicum” value in the test with fall panicum (setting [1]) was 90; with fall panicum (setting [2]) it was 100; in the test with fall panicum (setting [3]), 100; in the test on fall panicum (setting [4]) it was 15; with fall panicum (setting [5]) it was 85.
Regarding `CCNC(=O)c1cc(CCCl)n(Cc2ccnc(C(F)(F)F)c2)n1` [Compound 179], the “Plant response rating, Common Waterhemp” value is recorded as 0 with common waterhemp (setting [1]), 25 in the test on common waterhemp (setting [2]), 75 in the test with common waterhemp (setting [3]) and 0 in the test with common waterhemp (setting [4]). The “Plant response rating, Pigweed, Palmer” value is 0 in the test on pigweed, palmer (setting [1]); 35 in the test with pigweed, palmer (setting [2]); 100 in the test on pigweed, palmer (setting [3]); 0 in the test with pigweed, palmer (setting [4]). The “Plant response rating, Wild Poinsettia” value in the test on wild poinsettia (setting [1]) was determined as 5; in the test on wild poinsettia (setting [2]), 40; in the test on wild poinsettia (setting [3]), 50; with wild poinsettia (setting [4]), 0. Further, the “Plant response rating, Green Foxtail” value in the test on green foxtail (setting [1]) stood at 20; in the test on green foxtail (setting [2]), 20; in the test with green foxtail (setting [3]), 70; in the test on green foxtail (setting [4]) it was 0. Also, the “Plant response rating, Fall Panicum” value in the test with fall panicum (setting [1]) is listed as 35; in the test with fall panicum (setting [2]) it was 70; with fall panicum (setting [3]) it was 98; with fall panicum (setting [4]), 0.
Regarding `CCNC(=O)c1cc(CC)n(Cc2ccnc(C(F)(F)F)c2)n1` [Compound 196], the “Plant response rating, Common Waterhemp” value in the test with common waterhemp (setting [6]) worked out at 50; with common waterhemp (setting [2]), 75; in the test on common waterhemp (setting [3]) it was 100; in the test with common waterhemp (setting [4]), 0; with common waterhemp (setting [5]), 35. Also, the “Plant response rating, Pigweed, Palmer” value is recorded as 100 in the test with pigweed, palmer (setting [2]); 100 in the test on pigweed, palmer (setting [3]); 0 in the test with pigweed, palmer (setting [4]); 0 in the test on pigweed, palmer (setting [5]). In addition, the “Plant response rating, Wild Poinsettia” value with wild poinsettia (setting [2]) was found to be 35; with wild poinsettia (setting [3]) it was 65; in the test with wild poinsettia (setting [4]), 0; in the test with wild poinsettia (setting [5]), 5. Besides, the “Plant response rating, Green Foxtail” value came out at 75 with green foxtail (setting [2]), 100 in the test on green foxtail (setting [3]), 0 in the test with green foxtail (setting [4]) and 0 in the test on green foxtail (setting [5]). In addition, the “Plant response rating, Fall Panicum” value with fall panicum (setting [6]) is reported as 90; in the test on fall panicum (setting [2]), 98; with fall panicum (setting [3]), 100; with fall panicum (setting [4]) it was 0; in the test with fall panicum (setting [5]) it was 0.

Values taken from patent publication US20150105252A1, “SUBSTITUTED PYRAZOLES AS HERBICIDES” (E I DU PONT DE NEMOURS AND COMPANY, priority 2013, published 2015).
